Experiment [1] addresses T1, recombinant ICL (isocitrate lyase) from C. albicans ATCC10231 (Candida albicans, UniProt Q9P8Q7).
T1 construct: made in house
Description: biochemical. How it is done: Isolated diketopiperazines were tested for ICL inhibitory activity according to methods reported previously. […] To determine the type of inhibition, kinetic analysis was performed with cyclo(L-Phe-L-Val) (inhibitor) and phenylhydrazine […]. The inhibitor constant (Ki) was calculated from the Dixon plot.
S. puniceus Act1085 was used as the diketopiperazine-producing strain. C. albicans SC5314 (ATCC MYA-2876) (wild-type), MRC10 (Δicl) (icl-deletion mutant), MRC11 (Δicl + ICL) (icl-deletion mutant), […], ATCC18804, and ATCC11006 were used for the growth assay. C. albicans ATCC10231 was used to obtain recombinant ICL. Prof. Michael C. Lorenz (University of Texas Health Science Center, Houston, TX, USA) kindly provided the ICL mutants.
Before evaluation of the ICL inhibitory activity of the test compounds, the recombinant ICL from C. albicans was prepared according to methods described in a previous report. The ICL inhibitory activity of the test compounds was determined according to a previously described method. The ICL inhibition assay is based on the principle that glyoxylate phenylhydrazone forms in the reaction reagent after treatment with isocitrate and phenylhydrazine. Each test compound was dissolved in DMSO. The reaction mixture consisted of 20 mM sodium phosphate buffer (pH 7.0), 1.27 mM threo-DL(+)isocitrate, 3.75 mM MgCl2, 4.1 mM phenylhydrazine, and 2.5 μg/mL purified ICL and was incubated with or without the test compounds at a concentration range of 1–128 μg/mL at 37 °C for 30 min. The increase in intensity of absorbance resulting from the formation of glyoxylate phenylhydrazone was observed using a spectrophotometer (Shimadzu) at a wavelength of 324 nm. The inhibitory activity of the test compound was calculated relative to that of the DMSO control (n = 3). The methods for determination of the IC50 value and ICL enzyme concentrations have been described in previous reports. A known ICL inhibitor, 3-nitropropionate, was used as a reference control.

A further experiment relates to C. albicans SC5314. Description: In vitro growth assay (MIC) in YNB broth. It is filed as cell-based, Candida albicans. To be noted: 28 °C. An excerpt:
(§1) The glyoxylate cycle is necessary for virulence in C. albicans, which can survive in macrophages under abundant carbon sources, such as fatty acids or their breakdown products. When C. albicans is phagocytosed by a macrophage, the shift in metabolism from glycolysis to the glyoxylate cycle is activated so that the cells can utilize C2 carbon sources. It was expected that ICL inhibitors would reduce the nutrient uptake capacity and impede survival of the pathogen in the macrophage. To determine whether cyclo(L-Phe-L-Val) affects C2 substrate use, C. albicans strains SC5314, ATCC10231, ATCC10259, ATCC11006, and ATCC18804 were grown in YNB liquid broth containing either 2% glucose or 2% acetate as the sole carbon source.
(§2) C. albicans strains were cultured in YNB broth containing 2% glucose at 28 °C for 24 h, centrifuged at 15,000× g for 1 min, and washed twice with sterile distilled water. […] Additional DMSO was added to the medium at a final concentration of 0.5%. The fungal strain culture (20 μL) was poured into a 96-well assay plate at a final concentration of 1 × 10^4 cells/mL and total volume of 100 μL. The culture plates were incubated at 28 °C for 3 days. The positive control was amphotericin B, which is a known antifungal compound.

The next experiment deals with C. albicans ATCC11006. Description: In vitro growth assay (MIC) in YNB broth. It is filed as cell-based. Conditions: Candida albicans, ATCC11006, 72 h, 28 °C.
Text: as §1, §2

In a further experiment the test system is C. albicans ATCC18804. Description: In vitro growth assay (MIC) in YNB broth. It is filed as cell-based. To be noted: Candida albicans, ATCC18804, 72 h, 28 °C.
Text: as §1, §2

For another experiment, the system named is C. albicans ATCC10231. The experiment in a line: In vitro growth assay (MIC) in YNB broth. It is filed as cell-based. Conditions: Candida albicans, ATCC10231, 72 h, 28 °C.
Text: as §1, §2

The test system of a further experiment is C. albicans ATCC10259. Description: In vitro growth assay (MIC) in YNB broth. Conditions: Candida albicans, ATCC10259, 72 h, 28 °C. The experiment is classed as cell-based.
Text: as §1, §2

In experiment [2] the test system is C. albicans strains SC5314, ATCC10231, ATCC10259, ATCC11006, and ATCC18804. The experiment in a line: In vitro growth assay, summary over five strains. The experiment is classed as cell-based, Candida albicans.
Text: as §1, §2

Experiment [3] concerns C. albicans SC5314 (wild type) and icl-deletion mutants (MRC10 and MRC11). Description: Growth phenotype on YNB agar plates. The experiment is classed as cell-based, Candida albicans. Conditions: 2 days, 28 °C. How it is done:
(§3) To determine whether the cell phenotype of the icl-deletion mutant is affected by the presence of cyclo(L-Phe-L-Val), a growth assay was conducted using C. albicans SC5314 (wild type) and two icl-deletion mutants (MRC10 and MRC11). After pre-culture, these strains were streaked onto YNB agar containing 2% glucose or 2% potassium acetate with or without 32 μg/mL cyclo(L-Phe-L-Val). All strains grew normally on both the plates with glucose and with glucose plus the compound. […] We further conducted semi-quantitative reverse-transcription (RT)-PCR to assess the effects of cyclo(L-Phe-L-Val) on ICL expression. No ICL-specific PCR product was detected in the cultures when SC5314 and MRC11 were grown in YNB liquid broth containing glucose. […] GPDH expression was detected in all treatments regardless of cyclo(L-Phe-L-Val) exposure.
(§4) Figure 3 Analysis of growth phenotypes and icl mRNA expression. […] Total RNA was prepared from these cells, and icl mRNA expression was analyzed by semi-quantitative RT-PCR. The GPDH housekeeping gene was evaluated as a loading control.
(§5) C. albicans SC5314 (wild type) and icl-deletion mutants (MRC10 and MRC11) were cultured in YNB broth containing 2% glucose at 28 °C on a rotary shaker for 24 h. […] RNA extraction, cDNA synthesis, and semi-quantitative RT-PCR were performed using previously described methods. […]

The test system of another experiment is icl mRNA expression. Description: icl expression analysis by semi-quantitative RT-PCR. The experiment is classed as cell-based, Candida albicans. To be noted: SC5314 and MRC11, 2% potassium acetate plus 8, 16, 32 μg/mL compound, 4 h, 28 °C. How it is done: as §3, §4, §5
The mark [4] stands for this setting: Candida albicans, SC5314, 72 h, 2% glucose, read-out: MIC.
The mark [5] stands for this setting: Candida albicans, SC5314, 72 h, 2% potassium acetate, read-out: MIC.
[6] abbreviates: Candida albicans, SC5314, 2% glucose, 72 h, read-out: MIC.
The mark [7] stands for this setting: ICL IC50, 37 °C, 30 min, pH 7.0, n = 3.

Each structure is given as a SMILES string. ≈ marks a conversion by molar mass, not a printed value. Where “and” joins values, the source holds several entries; their conditions need not be identical. Identical values can stand only once. Entries after “also recorded” stand apart in the source; their conditions may differ. Like-named read-outs stand apart in the source and are kept apart here.

T1 sequence (Q9P8Q7 whole entry): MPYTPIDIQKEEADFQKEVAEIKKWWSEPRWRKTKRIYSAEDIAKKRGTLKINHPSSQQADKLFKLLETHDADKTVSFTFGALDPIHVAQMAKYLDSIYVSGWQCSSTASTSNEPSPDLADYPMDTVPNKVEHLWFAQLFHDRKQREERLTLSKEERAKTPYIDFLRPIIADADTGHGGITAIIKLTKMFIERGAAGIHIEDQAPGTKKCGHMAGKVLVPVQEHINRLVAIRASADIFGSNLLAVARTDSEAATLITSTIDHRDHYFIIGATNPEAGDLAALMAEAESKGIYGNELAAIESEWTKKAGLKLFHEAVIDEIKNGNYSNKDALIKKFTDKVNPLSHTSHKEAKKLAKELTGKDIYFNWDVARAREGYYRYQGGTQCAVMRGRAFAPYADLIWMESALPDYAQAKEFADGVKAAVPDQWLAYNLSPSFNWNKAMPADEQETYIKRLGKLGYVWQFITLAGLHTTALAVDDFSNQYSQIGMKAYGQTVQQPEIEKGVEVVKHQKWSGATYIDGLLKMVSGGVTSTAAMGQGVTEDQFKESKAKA

As to `O=C(O)CC[N+](=O)[O-]` [3-Nitropropionate, reference compound], the “ICL IC50” value in experiment [1] (37 °C, 30 min, pH 7.0, n = 3) was 1.90 ± 1.57 µg/mL. For the same molecule, the IC50 (usually the concentration needed to halve the response being measured) in experiment [1] (37 °C, 30 min, pH 7.0, n = 3, read-out: ICL IC50) worked out at 15.9 ± 2.13 µM. In addition, the MIC against C. albicans SC5314 (2% glucose, 72 h) was above 256 µg/mL.

As to `C[C@@H]1[C@H](O)[C@@H](C)/C=C/C=C/C=C/C=C/C=C/C=C/C=C/[C@H](O[C@@H]2O[C@H](C)[C@@H](O)[C@H](N)[C@@H]2O)C[C@@H]2O[C@](O)(C[C@@H](O)C[C@@H](O)[C@H](O)CC[C@@H](O)C[C@@H](O)CC(=O)O[C@H]1C)C[C@H](O)[C@H]2C(=O)O` [Amphotericin B, reference compound], the MIC with C. albicans ATCC11006 (2% glucose) came out at 0.5 µg/mL (≈ 0.541 µM); in the experiment with C. albicans ATCC11006 (2% potassium acetate) it was 0.5 µg/mL (≈ 0.541 µM); in the experiment with C. albicans ATCC18804 (2% glucose) it was 1 µg/mL (≈ 1.08 µM); against C. albicans ATCC18804 (2% potassium acetate), 0.5 µg/mL (≈ 0.541 µM); in the experiment with C. albicans ATCC10231 (2% glucose) it was 1 µg/mL (≈ 1.08 µM); against C. albicans ATCC10231 (2% potassium acetate) it was 0.5 µg/mL (≈ 0.541 µM). Also, the MIC in the experiment with C. albicans ATCC10259 (2% glucose) came out at 1 µg/mL (≈ 1.08 µM); in the experiment with C. albicans ATCC10259 (2% potassium acetate), 0.5 µg/mL (≈ 0.541 µM); in the experiment with C. albicans SC5314 (setting [4]), 1 µg/mL (≈ 1.08 µM); in the experiment with C. albicans SC5314 (setting [5]) it was 0.5 µg/mL (≈ 0.541 µM).

In the case of `O=C1N[C@@H](Cc2ccccc2)C(=O)N2CCC[C@@H]12` [Cyclo(L-Phe-L-Pro), cyclo(L-Phe-L-Pro)], in the experiment with C. albicans SC5314 (setting [6]), the MIC is above 256 µg/mL.

Turning to `CC(C)C1NC(=O)C(Cc2ccccc2)NC1=O` [Cyclo(L-Phe-L-Val), cyclo(L-Phe-L-Val)], the Ki (commonly the equilibrium dissociation constant of an inhibitor or competing ligand from its target) in experiment [1] amounted to 64.9 µM. Moreover, the IC50 in [1] (setting [7]) is 110 µM and 113 µM. Besides, the type of inhibition result in experiment [1] (kinetic analysis) is reported as “mixed inhibitor”. Further, the MIC in [2] (Candida albicans, acetate as sole carbon source, range over five strains, read-out: minimum inhibitory concentration) was 32 to 64 µg/mL (≈ 130 to 260 µM); against C. albicans ATCC11006 (2% glucose), above 256 µg/mL; with C. albicans ATCC11006 (2% potassium acetate) it was 32 µg/mL (≈ 130 µM); against C. albicans ATCC18804 (2% glucose), above 256 µg/mL; against C. albicans ATCC18804 (2% potassium acetate), 64 µg/mL (≈ 260 µM); against C. albicans ATCC10231 (2% glucose) it was above 256 µg/mL. Also, the MIC in the experiment on C. albicans ATCC10231 (2% potassium acetate) was 32 µg/mL (≈ 130 µM); against C. albicans ATCC10259 (2% glucose), above 256 µg/mL; in the experiment on C. albicans ATCC10259 (2% potassium acetate) it was 64 µg/mL (≈ 260 µM); in the experiment on C. albicans SC5314 (setting [4]), above 256 µg/mL; in the experiment on C. albicans SC5314 (setting [5]), 32 µg/mL (≈ 130 µM). Besides, the “inhibitory effect on C. albicans growth” value in [2] (glucose as sole carbon source) is listed as “no inhibitory effect”. In addition, the “growth on YNB agar” value is recorded as “grew normally” in experiment [3] (2% glucose plus 32 μg/mL compound) and “none of the tested strains exhibited growth; also recorded: no growth” in [3] (2% potassium acetate plus 32 μg/mL compound). The “intensity of PCR band of icl product (icl transcript level)” value with icl mRNA expression is on record as “decreased; also recorded: declined”.

As to `CC(C)C[C@@H]1NC(=O)[C@@H]2CCCN2C1=O` [Cyclo(L-Pro-L-Leu), cyclo(L-Pro-L-Leu)], in [1] (setting [7]), the IC50 worked out at 534 µM. Also, the MIC in the experiment with C. albicans SC5314 (setting [4]) was above 256 µg/mL.

As for `O=C1NC(Cc2ccc(O)cc2)C(=O)N2CCCC12` [Cyclo(L-Pro-L-Tyr), cyclo(L-Pro-L-Tyr)], the IC50 in [1] (setting [7]) is above 984 µM. For the same molecule, in the experiment with C. albicans SC5314 (setting [6]), the MIC was above 256 µg/mL.

As to `CC(C)[C@@H]1NC(=O)[C@@H]2CCCN2C1=O` [Cyclo(L-Pro-L-Val), cyclo(L-Pro-L-Val)], in experiment [1] (setting [7]), the IC50 turned out to be 516 µM. In addition, the MIC in the experiment with C. albicans SC5314 (setting [4]) was above 256 µg/mL.

Source of the values: paper PMC6600163, “Inhibitory Effects of Diketopiperazines from Marine-Derived Streptomyces puniceus on the Isocitrate Lyase of Candida albicans” (Molecules, 2019).
